The values below come from ChEMBL document CHEMBL3400064, “Synthesis and biological evaluation of 2-arylbenzimidazoles targeting Leishmania donovani” (Bioorg Med Chem Lett, 2015).

Format in all cases: functional
Test [1] concerns Leishmania donovani. As to the kind of experiment: Antileishmanial activity against axenic amastigote Leishmania donovani MHOM/SD/1962/1S-Cl2d assessed as inhibition of parasite growth after 24 hrs at 5 uM by alamarBlue assay. In general terms: Resazurin is reduced to fluorescent resorufin, in cell work by metabolically active cells.
Test [2] concerns Leishmania donovani. The test can be described thus: Antileishmanial activity against axenic amastigote Leishmania donovani MHOM/SD/1962/1S-Cl2d assessed as inhibition of parasite growth after 24 hrs at 15 uM by alamarBlue assay.
The test system of test [3] is Leishmania donovani. The test can be described thus: Antileishmanial activity against axenic amastigote Leishmania donovani MHOM/SD/1962/1S-Cl2d assessed as inhibition of parasite growth after 24 hrs at 50 uM by alamarBlue assay.

Usually inhibition stands for the percentage by which the read-out fell short of the control. Take `CC(=O)Nc1cccc(-c2nc3ccccc3[nH]2)c1`: in test [1], the inhibition at 5 µM is 20%. The inhibition at 15 µM in test [2] was found to be 21%. Also, the inhibition at 50 µM in test [3] came to 56%.
As for `Cn1cccc1C(=O)Nc1cccc(-c2nc3ccccc3[nH]2)c1`, the inhibition at 50 µM in test [3] came out at 33%.
`O=C(Nc1cccc(-c2nc3ccccc3[nH]2)c1)c1cscn1`: the inhibition at 50 µM in test [3] was 45%.
In the case of `Cc1cccc(C(=O)Nc2cccc(-c3nc4ccccc4[nH]3)c2)c1`, in test [1], the inhibition at 5 µM was 26%. For the same compound, the inhibition at 15 µM in test [2] stood at 52%. For the same compound, the inhibition at 50 µM in test [3] was found to be 59%.
The like results for `O=C(Nc1cccc(-c2nc3ccccc3[nH]2)c1)c1cccc(C(F)(F)F)c1` were, in that order, 17%, 68% and 83%.
The like results for `O=C(Nc1cccc(-c2nc3ccccc3[nH]2)c1)c1cccc(Cl)c1` were, in that order, 26%, 60% and 57%.
Take `COc1cccc(C(=O)Nc2cccc(-c3nc4ccccc4[nH]3)c2)c1`: the inhibition at 50 µM in test [3] turned out to be 49%.
As for `COC(=O)c1cccc(C(=O)Nc2cccc(-c3nc4ccccc4[nH]3)c2)c1`, the inhibition at 5 µM in test [1] amounted to 18%. Further, the inhibition at 15 µM in test [2] stood at 74%. Besides, the inhibition at 50 µM in test [3] is 100%.
In the case of `Cc1ccccc1C(=O)Nc1cccc(-c2nc3ccccc3[nH]2)c1`, the inhibition at 5 µM in test [1] was 22%. Further, the inhibition at 15 µM in test [2] was found to be 47%. Moreover, in test [3], the inhibition at 50 µM was 55%.
The like results for `O=C(Nc1cccc(-c2nc3ccccc3[nH]2)c1)c1ccccc1C(F)(F)F` were, in that order, 22%, 73% and 82%.
On to `COc1ccccc1C(=O)Nc1cccc(-c2nc3ccccc3[nH]2)c1`, for which the inhibition at 5 µM in test [1] came out at 23%. Further, in test [2], the inhibition at 15 µM was determined as 27%. In test [3], the inhibition at 50 µM was found to be 75%.
The like results for `CC(C)(C)C(=O)Nc1cccc(-c2nc3ccccc3[nH]2)c1` were, in that order, 27%, 44% and 54%.
The like results for `O=C(Nc1cccc(-c2nc3cc(Cl)ccc3[nH]2)c1)c1cccs1` were, in that order, 11%, 57% and 80%.
In the case of `Cc1c(NC(=O)c2cccs2)cccc1-c1nc2ccccc2[nH]1`, in test [3], the inhibition at 50 µM came out at 31%.
`COc1ccc(-c2nc3ccccc3[nH]2)cc1NC(=O)c1cccs1`: the inhibition at 50 µM in test [3] is 38%.
For `O=S(=O)(Nc1cccc(-c2nc3ccccc3[nH]2)c1)c1ccccc1`, the inhibition at 5 µM in test [1] came to 0%. Moreover, in test [2], the inhibition at 15 µM is 30%. In test [3], the inhibition at 50 µM turned out to be 52%.
On to `O=C(Nc1cccc(-c2nc3ccccc3o2)c1)c1cccs1`, for which the inhibition at 50 µM in test [3] was found to be 34%.
Still for that read-out and setting: the value for `O=C(Nc1ccc(-c2nc3ccccc3[nH]2)cc1)c1cccs1` was 22%.
For the compound `O=C(Nc1cccc(-c2nc3ccccc3[nH]2)c1)c1ccsc1`, the inhibition at 5 µM in test [1] amounted to 17%. Besides, the inhibition at 15 µM in test [2] is 67%. For the same compound, in test [3], the inhibition at 50 µM amounted to 83%.
For `O=C(Cc1cccs1)Nc1cccc(-c2nc3ccccc3[nH]2)c1`, the inhibition at 50 µM in test [3] stood at 49%.
On to `O=C(Nc1cccc(-c2nc3ccccc3[nH]2)c1)c1ccco1`, for which, in test [3], the inhibition at 50 µM is 43%.
`O=C(Nc1cccc(-c2nc3ccccc3[nH]2)c1)c1ccoc1`: in test [1], the inhibition at 5 µM worked out at 19%. In addition, in test [2], the inhibition at 15 µM was 39%. In addition, the inhibition at 50 µM in test [3] was determined as 80%.
Take `O=C(Nc1cccc(-c2nc3ccccc3[nH]2)c1)c1ccccn1`: in test [1], the inhibition at 5 µM is 19%. Further, in test [2], the inhibition at 15 µM was found to be 35%. Also, the inhibition at 50 µM in test [3] was 57%.
For `O=C(Nc1cccc(-c2nc3ccccc3[nH]2)c1)c1ccccc1F`, in that order: 24%, 37% and 74%.
Regarding `O=C(Nc1cccc(-c2nc3ccccc3[nH]2)c1)c1ccccc1`, the inhibition at 5 µM in test [1] was 17%. Moreover, the inhibition at 15 µM in test [2] stood at 43%. Besides, the inhibition at 50 µM in test [3] turned out to be 56%.
`CCCCC(=O)Nc1cccc(-c2nc3ccccc3[nH]2)c1`: the inhibition at 5 µM in test [1] is 15%. Moreover, the inhibition at 15 µM in test [2] was 67%. For the same compound, the inhibition at 50 µM in test [3] is 82%.
The like results for `O=C(Nc1cccc(-c2nc3ccccc3[nH]2)c1)C1CCCC1` were, in that order, 22%, 76% and 87%.
The like results for `O=C(Nc1ccccc1)Nc1cccc(-c2nc3ccccc3[nH]2)c1` were, in that order, 13%, 73% and 84%.
For `O=C(Nc1cccc(-c2nc3ccccc3[nH]2)c1)NC1CCCCC1`, in that order: 24%, 90% and 94%.
As to `O=C(Nc1ccccc1)Nc1ccccc1-c1nc2ccccc2[nH]1`, the inhibition at 5 µM in test [1] was 12%. The inhibition at 15 µM in test [2] is 16%. Also, the inhibition at 50 µM in test [3] worked out at 67%.
`O=C(Nc1ccccc1)c1cccc(-c2nc3ccccc3[nH]2)c1`: the inhibition at 5 µM in test [1] was found to be 8%. In test [2], the inhibition at 15 µM is 57%. Moreover, the inhibition at 50 µM in test [3] amounted to 87%.
For `O=C(Nc1ccccc1-c1nc2ccccc2[nH]1)c1cccs1`, in that order: 26%, 26% and 51%.
On to `O=C(Nc1cccc(-c2cc3ccccc3[nH]2)c1)c1cccs1`, for which the inhibition at 5 µM in test [1] is 16%. For the same compound, the inhibition at 15 µM in test [2] stood at 33%. The inhibition at 50 µM in test [3] was 86%.
For `CCn1c(-c2cccc(NC(=O)c3cccs3)c2)nc2ccccc21`, in that order: 24%, 81% and 87%.
For `CCCn1c(-c2cccc(NC(=O)c3cccs3)c2)nc2ccccc21`, in that order: 25%, 70% and 86%.
The like results for `CN(C(=O)c1cccs1)c1cccc(-c2nc3ccccc3[nH]2)c1` were, in that order, 3%, 21% and 40%.
As for `O=C(Cc1cccs1)Nc1cccc(-c2ncc[nH]2)c1`, the inhibition at 50 µM in test [3] came out at 0%.
`CCc1ccccc1C(=O)Nc1cccc(-c2nc3ccccc3[nH]2)c1`: the inhibition at 5 µM in test [1] came out at 21%. Also, the inhibition at 15 µM in test [2] worked out at 52%. Moreover, in test [3], the inhibition at 50 µM is 88%.
For `O=C(Nc1cccc(-c2nc3ccccc3[nH]2)c1)c1ccccc1Cl`, in that order: 23%, 55% and 79%.
Turning to `O=C(O)c1cccc(C(=O)Nc2cccc(-c3nc4ccccc4[nH]3)c2)c1`, in test [3], the inhibition at 50 µM was 0%.
In the case of `O=C(Nc1cccc(-c2nc3ccccc3[nH]2)c1)c1ccc(Cl)cc1`, in test [1], the inhibition at 5 µM came to 27%. In addition, the inhibition at 15 µM in test [2] is 41%. Moreover, the inhibition at 50 µM in test [3] was determined as 63%.
With `Cc1ccc(C(=O)Nc2cccc(-c3nc4ccccc4[nH]3)c2)cc1`, the inhibition at 5 µM in test [1] was 23%. Besides, the inhibition at 15 µM in test [2] stood at 71%. Further, the inhibition at 50 µM in test [3] was 82%.
